# From patent US5480892A, “(N-phthalimidoalkyl)piperidines” (The Du Pont Merck Pharmaceutical Company, priority 1994, dated 1996)
# Like-named read-outs stand apart in the source and are kept apart here.
# Key:
# [1] = test system: isolation-induced aggression in mice; assay: Isolation-Induced Aggression in Mice; type: in vivo, mouse (male Balb/c); details: for ED50: Mus musculus, po, 0.25 h, mice, p.o., 15 min after dosing, read-out: Inhibition of Isolation-induced Aggression (ED50 class); for inhibiting the isolation-induced aggressive behavior: statement on Table II
# [2] = biological target: T1, Sigma receptor (Cavia porcellus, UniProt Q60492); assay: Sigma Receptor Binding Assay; type: guinea pig (male Hartley), brain membranes
# T1 construct: Brain membranes were prepared by the method of Tam; from tissue; host or cells: guinea pig whole brain membranes
# T1 sequence (Q60492 whole entry): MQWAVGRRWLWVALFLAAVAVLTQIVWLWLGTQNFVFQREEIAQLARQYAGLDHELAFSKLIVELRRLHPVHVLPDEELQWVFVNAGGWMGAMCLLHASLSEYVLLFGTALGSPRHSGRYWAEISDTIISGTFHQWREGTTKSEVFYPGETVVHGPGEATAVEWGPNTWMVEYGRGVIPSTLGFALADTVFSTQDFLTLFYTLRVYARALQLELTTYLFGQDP
# [3] = biological target: T2, Dopamine (D-2) receptor (Cavia porcellus, UniProt H0VE83); assay: Dopamine Receptor Binding; type: guinea pig, striatum membranes
# T2 construct: Membranes were prepared from guinea pig striatum; from tissue; host or cells: guinea pig striatum membranes
# T2 sequence (H0VE83 1-446): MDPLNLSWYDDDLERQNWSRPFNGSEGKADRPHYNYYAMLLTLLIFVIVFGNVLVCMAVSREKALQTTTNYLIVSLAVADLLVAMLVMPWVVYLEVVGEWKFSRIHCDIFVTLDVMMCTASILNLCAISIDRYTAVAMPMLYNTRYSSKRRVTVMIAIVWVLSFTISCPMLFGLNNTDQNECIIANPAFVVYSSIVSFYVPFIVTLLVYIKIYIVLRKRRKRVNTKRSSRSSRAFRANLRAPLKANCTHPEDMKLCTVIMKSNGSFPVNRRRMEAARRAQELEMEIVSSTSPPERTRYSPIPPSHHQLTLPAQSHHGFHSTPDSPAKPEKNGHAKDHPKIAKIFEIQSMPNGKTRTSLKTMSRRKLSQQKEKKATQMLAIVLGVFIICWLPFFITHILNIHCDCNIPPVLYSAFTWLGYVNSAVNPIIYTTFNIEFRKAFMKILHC
# [4] = test system: mescaline-induced scratching in mice; assay: Mescaline-Induced Scratching in Mice; type: in vivo, mouse (male CF1); details: Mus musculus, 0.75 h, mescaline 25 mg/kg orally, 10 mg/kg po, read-out: Inhibition of Mescaline Scratch (ED50 class)
# Description: This is a modification of the procedure of Fellows and Cook (in Psychotropic Drugs, ed. by S. Garrattini and V. Ghatti, pp. 397-404, Elsevier, Amsterdam, 1957) and Deegan and Cook (J. Pharmacol. Exp. Ther. 122: 17A, 1958). Male CF1 Mice (Charles River) were injected orally with test compound and placed singly into square (13 cm) Plexiglass observation chambers. Twenty minutes later mice were injected orally with mescaline (25 mg/kg). Beginning 25 minutes after treatment with mescaline (45 minutes after treatment with test compound), scratching episodes were counted during a 5 minute observation period. A scratching episode is defined as a brief (1-2 sec) burst of scratching either the head or the ear with the hind foot.
# [5] = 1 nM (+)-[3H]SKF 10,047, guinea pig brain membranes, pH 7.4, 45 min room temperature, read-out: Receptor Binding Affinity Sigma (Ki class)
# [6] = 0.15 nM [3H]spiperone, guinea pig striatum, pH 7.7, 15 min 37° C., read-out: Receptor Binding Affinity Dopamine (D-2) (Ki class)
"Ki [2, 5] [nM]","Ki [3, 6] [nM]",Compound,also measured
31 to 100,> 500,"O=C1C2=C(CCCC2)CN1CC1CCN(CCc2ccccc2)CC1 [Example 6, 2,3,4,5,6,7-hexahydro-2-[[1-(2-phenylethyl)-4-piperidinyl]methyl]-1H-isoindol-1-one]",ED50 [1]: 21 to 70 mg/kg; inhibiting the isolation-induced aggressive behavior [1]: potent activities
1 to 30,> 500,O=C1[C@H]2CCCC[C@H]2C(=O)N1CC1CCN(CC2CCCCC2)CC1 [Example 15],inhibiting the isolation-induced aggressive behavior [1]: potent activities
1 to 30,> 500,O=C1[C@H]2CCCC[C@H]2C(=O)N1CC1CCN(CCC2CCCCC2)CC1 [Example 17],inhibiting the isolation-induced aggressive behavior [1]: potent activities
1 to 30,> 500,CC1CC[C@@H]2C(=O)N(CC3CCN(CCc4ccccc4)CC3)C(=O)[C@@H]2C1 (stereo partly drawn) [Example 23],ED50 [1]: 21 to 70 mg/kg
1 to 30,> 500,O=C1c2ccccc2C(=O)N1CC1CCN(Cc2ccccc2)CC1 [Example 34],ED50 [1]: 11 to 20 mg/kg
1 to 30,> 500,O=C1c2ccccc2C(=O)N1CCC1CCN(CCc2ccccc2)CC1 [Example 39],ED50 [1]: 21 to 70 mg/kg
1 to 30,> 500,O=C1C2C3C=CC(CCC3)C2C(=O)N1CC1CCN(CCc2ccccc2)CC1 (stereo not drawn) [Example 62],–
> 500,> 500,O=C1C2CC(O)C(O)CC2C(=O)N1CC1CCN(CCc2ccccc2)CC1 (stereo not drawn) [Example 63],–
31 to 100,> 500,CC12CCCCC1C(=O)N(CC1CCN(CCc3ccccc3)CC1)C2=O (stereo not drawn) [Example 64],–
31 to 100,101 to 500,CC12CCCCC1(C)C(=O)N(CC1CCN(CCc3ccccc3)CC1)C2=O (stereo not drawn) [Example 65],–
31 to 100,> 500,CC12CC=CCC1(C)C(=O)N(CC1CCN(CCc3ccccc3)CC1)C2=O (stereo not drawn) [Example 66],–
101 to 500,> 500,CC12CC=CCC1C(=O)N(CC1CCN(CCc3ccccc3)CC1)C2=O (stereo not drawn) [Example 67],–
101 to 500,> 500,O=C1C2C(c3ccccc3)CCC(c3ccccc3)C2C(=O)N1CC1CCN(CCc2ccccc2)CC1 (stereo not drawn) [Example 68],–
1 to 30,> 500,O=C1C2C3C=CC(C4CC34)C2C(=O)N1CC1CCN(CCc2ccccc2)CC1 (stereo not drawn) [Example 69],–
101 to 500,101 to 500,"CC1C2=C(CCCC2)C(=O)N1CC1CCN(CCc2ccccc2)CC1 (stereo not drawn) [Example 70, 2,3,4,5,6,7, -hexahydro-2-[[1-(2-phenylethyl)-4-piperidinyl]methyl]-3-methyl-1H-isoindol-1-one]",–
1 to 30,> 500,O=C1C2=C(CN1CC1CCN(CCc3ccccc3)CC1)C1CCCC2CC1 (stereo not drawn) [Example 71],–
1 to 30,101 to 500,O=C1C2C3CCC(C4CCC43)C2C(=O)N1CC1CCN(CCc2ccccc2)CC1 (stereo not drawn) [Example 72],–
31 to 100,> 500,O=C1C2C3CCCC(CC3)C2C(O)N1CC1CCN(CCc2ccccc2)CC1 (stereo not drawn) [Example 73],–
101 to 500,> 500,O=C1[C@H]2CCCC[C@H]2C(=O)N1CC1(O)CCN(CCc2ccccc2)CC1 [Example 74],–
1 to 30,> 500,O=C1C2C3C=CC(CCC3)C2C(=O)N1CC1(O)CCN(CCc2ccccc2)CC1 (stereo not drawn) [Example 75],–
31 to 100,> 500,O=C1C2C3C=CC(C4C=CC43)C2C(=O)N1CC1(O)CCN(CCc2ccccc2)CC1 (stereo not drawn) [Example 76],–
31 to 100,> 500,O=C1C2C3C=CC(C4CCC34)C2C(=O)N1CC1(O)CCN(CCc2ccccc2)CC1 (stereo not drawn) [Example 77],–

"Ki [2, 5] [nM]","Ki [3, 6] [nM]",Compound,also measured
101 to 500,101 to 500,CCCC1C2c3ccccc3C=CC2C(=O)N1CCC1CCN(CCc2ccccc2)CC1 (stereo not drawn) [Example 86],–
1 to 30,> 500,O=C1c2ccccc2C(=O)N1CCC1=CCN(CCc2ccccc2)CC1 [Example 115],–
31 to 100,> 500,O=C1c2ccccc2C(=O)N1CCCC1=CCN(CCc2ccccc2)CC1 [Example 116],–
1 to 30,> 500,O=C1[C@H]2CC=CC[C@H]2C(=O)N1CC1=CCN(CCc2ccccc2)CC1 [Example 117],–
1 to 30,> 500,O=C1[C@H]2CC=CC[C@H]2C(=O)N1CCCC1=CCN(CCc2ccccc2)CC1 [Example 118],–
1 to 30,> 500,O=C1[C@H]2CCCC[C@H]2C(=O)N1CC1=CCN(CCc2ccccc2)CC1 [Example 119],–
1 to 30,> 500,O=C1[C@H]2CCCC[C@H]2C(=O)N1CCC1=CCN(CCc2ccccc2)CC1 [Example 120],–
1 to 30,> 500,O=C1[C@H]2CCCC[C@H]2C(=O)N1CCCC1=CCN(CCc2ccccc2)CC1 [Example 121],–
–,–,COc1cccc(C2(CN3C(=O)C4CCCCC4C3=O)CCN(CCc3ccccc3)CC2)c1 (stereo not drawn) [Example 125],Ki [2]: 31 to 100 nM; Ki [3]: > 500 nM
1 to 30,> 500,"CC1(CN2C(=O)[C@H]3CCCC[C@H]3C2=O)CCN(CCc2ccccc2)CC1 [Example 132, 2-[1-(2-Phenylethyl)-4-(4-methyl)piperidinylmethyl]-cis-3a, 4,5,6,7,7a-hexahydro-1H-isoindole-1,3(2H)-dione]",–
1 to 30,> 500,CC1(CN2C(=O)[C@H]3CCCC[C@H]3C2=O)CCN(CCC2CCCCC2)CC1 [Example 133],–
31 to 100,–,O=C1C2=C(CCCC2)C(c2ccccc2)N1CC1CCN(CCc2ccccc2)CC1 (stereo not drawn) [Example 134],ED50 [4]: < 11 mg/kg
–,–,CCCCC1C2=C(CCCC2)C(=O)N1CC1CCN(CCc2ccccc2)CC1 (stereo not drawn) [Example 135],ED50 [1]: < 11 mg/kg; ED50 [4]: < 11 mg/kg
31 to 100,–,O=C1C2=C(CCCC2)C(c2ccc(F)cc2)N1CC1CCN(CCc2ccccc2)CC1 (stereo not drawn) [Example 136],ED50 [1]: < 11 mg/kg; ED50 [4]: < 11 mg/kg
–,–,CC1C2=C(CCCC2)C(=O)N1CC1CCN(CCc2ccc(F)cc2)CC1 (stereo not drawn) [Example 137],ED50 [1]: < 11 mg/kg; ED50 [4]: < 11 mg/kg
1 to 30,–,CCCCCCC1C2=C(CCCC2)C(=O)N1CC1CCN(CCc2ccccc2)CC1 (stereo not drawn) [Example 138],ED50 [1]: < 11 mg/kg; ED50 [4]: < 11 mg/kg
1 to 30,–,CC(C)CC1C2=C(CCCC2)C(=O)N1CC1CCN(CCc2ccccc2)CC1 (stereo not drawn) [Example 139],ED50 [1]: < 11 mg/kg; ED50 [4]: < 11 mg/kg
31 to 100,–,CCC(C)C1C2=C(CCCC2)C(=O)N1CC1CCN(CCc2ccccc2)CC1 (stereo not drawn) [Example 140],ED50 [4]: < 11 mg/kg
1 to 30,–,O=C1C2=C(CCCC2)C(c2ccco2)N1CC1CCN(CCc2ccccc2)CC1 (stereo not drawn) [Example 141],ED50 [4]: < 11 mg/kg
1 to 30,–,O=C1C2=C(CCCC2)C(c2cccs2)N1CC1CCN(CCc2ccccc2)CC1 (stereo not drawn) [Example 142],ED50 [4]: < 11 mg/kg
–,–,Cc1ccc(C2C3=C(CCCC3)C(=O)N2CC2CCN(CCc3ccccc3)CC2)cc1 (stereo not drawn) [Example 143],ED50 [1]: < 11 mg/kg; ED50 [4]: < 11 mg/kg
–,–,CCCC1C2=C(CCCC2)C(=O)N1CC1CCN(CCc2ccccc2)CC1 (stereo not drawn) [Example 144],ED50 [1]: < 11 mg/kg; ED50 [4]: < 11 mg/kg

Compound,"Ki [2, 5] [nM]","Ki [3, 6] [nM]",also measured
"O=C1[C@H]2CCCC[C@H]2C(=O)N1CC1(c2ccccc2)CCN(CCc2ccccc2)CC1 [Example 122, 2-[1-(2-Phenylethyl)-4-phenyl-4-piperidine-methyl]-cis-3a; 4,5,6,7,7a-hexalydro-1H-isoindole-1,3(2H)-dione]",–,> 500,Ki [2]: 1 to 30 nM
O=C1[C@H]2CCCC[C@H]2C(=O)N1CC1(c2cccc(Cl)c2)CCN(CCc2ccccc2)CC1 [Example 123],–,> 500,Ki [2]: 1 to 30 nM
O=C1[C@H]2CCCC[C@H]2C(=O)N1CC1(c2ccc(Cl)cc2)CCN(CCc2ccccc2)CC1 [Example 124],–,> 500,Ki [2]: 1 to 30 nM
O=C1C2CCCCC2C(=O)N1CC1(c2cccc(C(F)(F)F)c2)CCN(CCc2ccccc2)CC1 (stereo not drawn) [Example 126],–,> 500,Ki [2]: 1 to 30 nM
O=C1[C@H]2CCCC[C@H]2C(=O)N1CC1(c2cccc3ccccc23)CCN(CCc2ccccc2)CC1 [Example 127],–,> 500,Ki [2]: 31 to 100 nM
O=C1[C@H]2CCCC[C@H]2C(=O)N1CC1(c2ccsc2)CCN(CCc2ccccc2)CC1 [Example 128],–,> 500,Ki [2]: 1 to 30 nM
O=C1[C@H]2CCCC[C@H]2C(=O)N1CC1(c2csc3ccccc23)CCN(CCc2ccccc2)CC1 [Example 129],–,101 to 500,Ki [2]: 1 to 30 nM
O=C1c2ccccc2C(=O)N1CC1(c2cccc(Cl)c2)CCN(CCc2ccccc2)CC1 [Example 130],–,> 500,Ki [2]: 1 to 30 nM
